Experiment: Solubility of galantamine base in ethanol
Type: physicochemical

COc1ccc2c3c1O[C@H]1C[C@@H](O)C=C[C@@]31CCN(C)C2 [galantamine base, galantamine]
solubility in ethanol: soluble

Source: patent publication US20080031935A1, “Cholinesterase Inhibitors In Liposomes And Their Production And Use” (priority 2004, published 2008)
